Where “and” joins values, the source holds several entries; their conditions need not be identical. Equal values may be shown once. Read-outs that look alike come from different tables or passages of the source.
Legend:
[1] = tested on: HEC108; assay: CFA 10-14 day clonogenic assay; type: cell-based; conditions: Homo sapiens
[2] = tested on: SNU1; assay: CFA 10-14 day clonogenic assay; type: cell-based; conditions: Homo sapiens
[3] = tested on: DLD-1 (HCT15); assay: CFA 10-14 day clonogenic assay; type: cell-based; conditions: Homo sapiens
[4] = CL in vivo, intravenous bolus; conditions: whole blood
Description: (§1) PK parameters were determined by non-compartmental analysis. Intravenous bolus studies in mouse, rat and dog were performed at 1, 1 and 0.1 mg per kg respectively (Extended Data Table 1).

[5] = tested on: SW48; assay: 4 day proliferation assay (CellTiter-Glo); conditions: for GI50: Homo sapiens, SW48, 96 h
[6] = tested on: SNUC2A; assay: 4 day proliferation assay (CellTiter-Glo)
[7] = tested on: HEC6; assay: CFA 10-14 day clonogenic assay; type: cell-based; conditions: Homo sapiens, HEC-6
[8] = HRO761 blood PK in SW48 tumour-bearing mice; type: in vivo, mouse; conditions: for concentration at 4 h / concentration at 8 h / concentration at 0.5 h / concentration at 1 h / concentration at 2 h / concentration at 24 h / AUC: female, whole blood; for concentration at 4 h / concentration at 8 h / concentration at 0.5 h / concentration at 1 h / concentration at 2 h / concentration at 24 h: Free HRO761 blood concentration
Description: All animal studies were conducted in accordance with ethics and procedures covered by permit BS-2275 and BS-1975 issued by the Kantonales Veterinäramt Basel-Stadt and in strict adherence to guidelines of the Eidgenössisches Tierschutzgesetz and the Eidgenössische Tierschutzverordnung, Switzerland. All animal studies were approved by the internal ethics committee. All animals had access to food and water ad libitum and were identified with transponders. They were housed in a specific-pathogen-free facility in IVC racks under a 12 h–12 h light–dark cycle. To establish cell-line-derived xenograft models, 6–7-week-old female athymic nude (Crl:NU(NCr)-Foxn1^nu) or SCID-BEIGE (CB17.Cg-PrkdcscidLystbg-J/Crl) mice from Charles River were engrafted subcutaneously with 5 million tumour cells in HBSS (H6648, Sigma-Aldrich). For SNU-407, Lovo, IM95, RL95.2, Ishikawa and IGROV-1, the cells were concentrated in 50% Matrigel (354234, Corning). Patient-derived xenografts were induced and expanded by transplantation as previously described. […] For the efficacy experiment, mice were randomized into groups (n = 5–6) for a mean tumour size of 100–150 mm^3. […] Blood samples were collected on day 7 and 91. […] Tumour responses are reported with the measures of tumour volumes from the treatment start. […] Animals were randomized (n = 3) and tumour samples were collected at 0, 1, 4, 8 and 24 h on the first day and then collected 4 h after the last treatment on day 3, 8, 10, 14 (including a 24 h timepoint), 17 and 21. Tumours were excised, weighed, either frozen in liquid nitrogen and cryogenic dry pulverized with the CryoPrep system (model CP-02, Covaris) or processed to FFPE after fixation. […] On day 12, blood samples were collected for PK analysis. On the last day (3 h after the last treatment), tumours were excised, weighed, frozen in liquid nitrogen and cryogenic dry pulverized for PD analysis.
as §1

[9] = tested on: HEC108; assay: 4 day proliferation assay (CellTiter-Glo); conditions: Homo sapiens, 96 h, read-out: 4 day assay GI50
[10] = tested on: LIM2405; assay: CFA 10-14 day clonogenic assay; type: cell-based; conditions: Homo sapiens
[11] = tested on: KM12; assay: 4 day proliferation assay (CellTiter-Glo); conditions: Homo sapiens, KM12, 96 h, read-out: 4 day assay GI50
[12] = tested on: CW2; assay: CFA 10-14 day clonogenic assay; type: cell-based; conditions: Homo sapiens, CW-2
[13] = tested on: SNU407; assay: CFA 10-14 day clonogenic assay; type: cell-based; conditions: Homo sapiens, SNU-407
[14] = tested on: RKO; assay: CFA 10-14 day clonogenic assay; type: cell-based; conditions: Homo sapiens
[15] = tested on: SNGM; assay: CFA 10-14 day clonogenic assay; type: cell-based; conditions: Homo sapiens
[16] = tested on: NUGC3; assay: 4 day proliferation assay (CellTiter-Glo); conditions: Homo sapiens, NUGC-3, 96 h, read-out: 4 day assay GI50

`CCc1c(N2CCN(C(=O)c3ncnc(C)c3O)CC2)c(=O)n2nc(C3=CCOCC3)nc2n1CC(=O)Nc1ccc(C(F)(F)F)cc1Cl` [HRO761] showed a GI50 [1] of 104 nM, a GI50 [2] of no less than 10 µM and a GI50 [3] of no less than 10 µM. It also gave a clearance ([4]; 0.1 mg/kg, dog, intravenous bolus 0.1 mg per kg) of 4.3 mL/min/kg, a clearance ([4]; 1 mg/kg, mouse, intravenous bolus 1 mg per kg) of 29 mL/min/kg and a clearance ([4]; 1 mg/kg, rat, intravenous bolus 1 mg per kg) of 5.3 mL/min/kg. The GI50 ([5]; HRO761 alone) was 100 nM, the GI50 ([5]; HRO761 dose response with 3.2 µM ATMi KU-55933) was 200 nM and the GI50 ([5]; read-out: 4 day assay GI50, SW48) was 58 nM. The “unbound GI90” value ([5]; SW48) was 0.16 µM, the GI50 ([6]; Homo sapiens, 96 h, read-out: 4 day assay GI50, SNUC2A) was 641 nM and the GI50 ([6]; read-out: 4 day assay GI50, SNUC2A) was 542 nM. For the same compound, the GI50 [7] was 16 nM, the “Free HRO761 blood concentration” value ([8]; 20mg/kg po, qd, 0.5 h post treatment, single mouse) was 1.505 µM and 0.703 µM and 1.278 µM and the “Free HRO761 blood concentration” value ([8]; 20mg/kg po, qd, 1 h, single mouse) was 0.984 µM and 0.274 µM and 0.743 µM. For the same compound, the “Free HRO761 blood concentration” value ([8]; 20mg/kg po, qd, 2 h, single mouse) was 0.245 µM and 0.085 µM and 0.166 µM, the “Free HRO761 blood concentration” value ([8]; 20mg/kg po, qd, 4 h, single mouse) was 0.104 µM and 0.131 µM and the “Free HRO761 blood concentration” value ([8]; 20mg/kg po, qd, 8 h, single mouse) was 0.145 µM and 0.122 µM. The “Free HRO761 blood concentration” value ([8]; 20mg/kg po, qd, 24 h, single mouse) was 0.008 µM and 0.006 µM and 0.002 µM, the “Free HRO761 blood concentration” value ([8]; 40mg/kg, 0.5 h, single mouse) was 3.970 µM and 2.544 µM and the “Free HRO761 blood concentration” value ([8]; 40mg/kg, 1 h, single mouse) was 2.426 µM and 1.276 µM. The “Free HRO761 blood concentration” value ([8]; 40mg/kg, 2 h, single mouse) was 0.355 µM and 0.442 µM and 0.166 µM, the “Free HRO761 blood concentration” value ([8]; 40mg/kg, 4 h, single mouse) was 0.164 µM and 0.089 µM and the “Free HRO761 blood concentration” value ([8]; 40mg/kg, 8 h, single mouse) was 0.251 µM and 0.168 µM. For the same compound, the “Free HRO761 blood concentration” value ([8]; 40mg/kg, 24 h, single mouse) was 0.004 µM and 0.015 µM and 0.019 µM, the “Free HRO761 blood concentration” value ([8]; 60mg/kg, 0.5 h, single mouse) was 5.178 µM and 5.802 µM and 12.609 µM and the “Free HRO761 blood concentration” value ([8]; 60mg/kg, 1 h, single mouse) was 2.372 µM and 2.688 µM and 8.368 µM. For the same compound, the “Free HRO761 blood concentration” value ([8]; 60mg/kg, 2 h, single mouse) was 0.484 µM and 0.423 µM and 1.801 µM, the “Free HRO761 blood concentration” value ([8]; 60mg/kg, 4 h, single mouse) was 0.455 µM and 0.299 µM and 0.197 µM and the “Free HRO761 blood concentration” value ([8]; 60mg/kg, 8 h, single mouse) was 0.237 µM and 0.241 µM. The “Free HRO761 blood concentration” value ([8]; 60mg/kg, 24 h, single mouse) was 0.050 µM and 0.025 µM and 0.021 µM, the “Free HRO761 blood concentration” value ([8]; 120mg/kg, 0.5 h, single mouse) was 17.511 µM and 15.342 µM and the “Free HRO761 blood concentration” value ([8]; 120mg/kg, 1 h, single mouse) was 10.912 µM and 17.320 µM. The “Free HRO761 blood concentration” value ([8]; 120mg/kg, 2 h, single mouse) was 3.175 µM and 5.721 µM, the “Free HRO761 blood concentration” value ([8]; 120mg/kg, 4 h, single mouse) was 0.693 µM and 0.631 µM and the “Free HRO761 blood concentration” value ([8]; 120mg/kg, 8 h, single mouse) was 0.515 µM and 0.718 µM. For the same compound, the “Free HRO761 blood concentration” value ([8]; 120mg/kg, 24 h, single mouse) was 0.210 µM and 0.035 µM and 0.095 µM, the concentration at 4 h ([8]; mouse, oral, 20 mg/kg, 20mg/kg po, qd, 4 h, single mouse) was 176 nM and the concentration at 8 h ([8]; mouse, oral, 20 mg/kg, 20mg/kg po, qd, 8 h, single mouse) was 154 nM. The concentration at 0.5 h ([8]; mouse, oral, 20 mg/kg, Mean, 20mg/kg po, qd, 0.5 h) was 1.16 µM, the concentration at 1 h ([8]; mouse, oral, 20 mg/kg, Mean, 20mg/kg po, qd, 1 h) was 0.67 µM and the concentration at 2 h ([8]; mouse, oral, 20 mg/kg, Mean, 20mg/kg po, qd, 2 h) was 170 nM. For the same compound, the concentration at 4 h ([8]; mouse, oral, 20 mg/kg, Mean, 20mg/kg po, qd, 4 h) was 140 nM, the concentration at 8 h ([8]; mouse, oral, 20 mg/kg, Mean, 20mg/kg po, qd, 8 h) was 140 nM and the concentration at 24 h ([8]; mouse, oral, 20 mg/kg, Mean, 20mg/kg po, qd, 24 h) was 5.15 nM. The concentration at 0.5 h ([8]; mouse, oral, 40 mg/kg, Mean, 0.5 h) was 3.14 µM, the concentration at 1 h ([8]; mouse, oral, 40 mg/kg, Mean, 1 h) was 1.86 µM and the concentration at 2 h ([8]; mouse, oral, 40 mg/kg, Mean, 2 h) was 320 nM. For the same compound, the concentration at 4 h ([8]; mouse, oral, 40 mg/kg, Mean, 4 h) was 130 nM, the concentration at 8 h ([8]; mouse, oral, 40 mg/kg, Mean, 8 h) was 200 nM and the concentration at 24 h ([8]; mouse, oral, 40 mg/kg, Mean, 24 h) was 12.9 nM. The concentration at 0.5 h ([8]; mouse, oral, 40 mg/kg, 0.5 h, single mouse) was 2.91 µM, the concentration at 1 h ([8]; mouse, oral, 40 mg/kg, 1 h, single mouse) was 1.89 µM and the concentration at 4 h ([8]; mouse, oral, 40 mg/kg, 4 h, single mouse) was 124 nM. For the same compound, the concentration at 8 h ([8]; mouse, oral, 40 mg/kg, 8 h, single mouse) was 178 nM, the concentration at 0.5 h ([8]; mouse, oral, 60 mg/kg, Mean, 0.5 h) was 7.86 µM and the concentration at 1 h ([8]; mouse, oral, 60 mg/kg, Mean, 1 h) was 4.48 µM. The concentration at 2 h ([8]; mouse, oral, 60 mg/kg, Mean, 2 h) was 900 nM, the concentration at 4 h ([8]; mouse, oral, 60 mg/kg, Mean, 4 h) was 320 nM and the concentration at 8 h ([8]; mouse, oral, 60 mg/kg, Mean, 8 h) was 250 nM. The concentration at 24 h ([8]; mouse, oral, 60 mg/kg, Mean, 24 h) was 32.2 nM, the concentration at 8 h ([8]; mouse, oral, 60 mg/kg, 8 h, single mouse) was 276 nM and the concentration at 0.5 h ([8]; mouse, oral, 120 mg/kg, Mean, 0.5 h) was 15.9 µM. It also gave a concentration at 1 h ([8]; mouse, oral, 120 mg/kg, Mean, 1 h) of 13.9 µM, a concentration at 2 h ([8]; mouse, oral, 120 mg/kg, Mean, 2 h) of 4010 nM and a concentration at 4 h ([8]; mouse, oral, 120 mg/kg, Mean, 4 h) of 610 nM. It also gave a concentration at 8 h ([8]; mouse, oral, 120 mg/kg, Mean, 8 h) of 620 nM, a concentration at 24 h ([8]; mouse, oral, 120 mg/kg, Mean, 24 h) of 110 nM and a concentration at 0.5 h ([8]; mouse, oral, 120 mg/kg, 0.5 h, single mouse) of 14.8 µM. For the same compound, the concentration at 1 h ([8]; mouse, oral, 120 mg/kg, 1 h, single mouse) was 13.5 µM, the concentration at 2 h ([8]; mouse, oral, 120 mg/kg, 2 h, single mouse) was 3120 nM and the concentration at 4 h ([8]; mouse, oral, 120 mg/kg, 4 h, single mouse) was 496 nM. The concentration at 8 h ([8]; mouse, oral, 120 mg/kg, 8 h, single mouse) was 620 nM, the AUC ([8]; mouse, po, 10 mg/kg, read-out: AUCb, u above GI90, u) was 0.09 µM·h and the AUC ([8]; mouse, po, 20 mg/kg, read-out: AUCb, u above GI90, u) was 0.52 µM·h. It also gave an AUC ([8]; mouse, po, 30 mg/kg, read-out: AUCb, u above GI90, u) of 2.14 µM·h, an AUC ([8]; mouse, po, 40 mg/kg, read-out: AUCb, u above GI90, u) of 4 µM·h and an AUC ([8]; mouse, po, 60 mg/kg, read-out: AUCb, u above GI90, u) of 6.08 µM·h. The AUC ([8]; mouse, po, 120 mg/kg, read-out: AUCb, u above GI90, u) was 27 µM·h, the AUC ([8]; oral, mouse at 40 mg/kg qd, read-out: Efficacious daily AUC) was 31 µM·h and the GI50 [9] was 1460 nM. It also gave a GI50 [10] of 452 nM, a GI50 [11] of 1380 nM and a GI50 [12] of 68 nM. It also gave a GI50 [13] of 25 nM, a GI50 [14] of 243 nM and a GI50 [15] of 7.29 µM. The GI50 [16] was no less than 10 µM.
